For 19 compounds, EC50 results are on record in patent publication US20190010139A1 (priority 2015, published 2019).

This assay concerns NL-RLuc virus. Kind of assay: Inhibition of HIV replication (NL-RLuc luciferase reporter virus in MT-2 cells). In kind it is cell-based. The conditions noted are these: Human immunodeficiency virus 1, MT2, 120 h; for pEC50: read-out: Activity; for EC50: read-out: EC50 μM. The source says: Inhibition of HIV Replication:
A recombinant NL-RLuc proviral clone was constructed in which a section of the nef gene from NL4-3 was replaced with the Renilla Luciferase gene. This virus is fully infectious and can undergo multiple cycles of replication in cell culture. In addition, the luciferous reporter provides a simple and easy method for quantitating the extent of virus growth and consequently, the antiviral activity of test compounds. The plasmid pNLRLuc contains the proviral NL-Rluc DNA cloned into pUC 18 at the PvuII site. The NL-RLuc virus was prepared by transfection of 293T cells with the plasmid pNLRLuc. Transfections were performed using the LipofectAMINE PLUS kit from Invitrogen (Carlsbad, Calif.) according to the manufacturer and the virus generated was titered in MT-2 cells. For susceptibility analyses, the titrated virus was used to infect MT-2 cells in the presence of compound, and after 5 days of incubation, cells were processed and quantitated for virus growth by the amount of expressed luciferase. Assay media was RPMI 1640 supplemented with 10% heat inactivated fetal bovine serum (FBS), 100 units/ml penicillin G/100 units/ml streptomycin, 10 mM HEPES buffer pH 7.55 and 2 mM L-glutamine. The results from at least 2 experiments were used to calculate the EC50 values. Luciferase was quantitated using the Dual Luciferase kit from Promega (Madison, Wis.). Susceptibility of viruses to compounds was determined by incubation in the presence of serial dilutions of the compound. The 50% effective concentration (EC50) was calculated by using the exponential form of the median effect equation where (Fa)=1/[1+(ED50/drug conc.)^m](Johnson V A, Byington R T. Infectivity Assay. In Techniques in HIV Research. ed. Aldovini A, Walker B D. 71-76. New York: Stockton Press.1990). Activity equal to A refers to a compound having an EC50≤100 nM, while B and C denote compounds having an EC50 between 100 nM and 1 uM (B) or >1 uM (C).
In general terms: In a reporter assay the amount or activity of a reporter protein is the signal.

pEC50: −log10 of the molar value. Like-named read-outs stand apart in the source and are kept apart here. Where only a bound is given, the exact number is not on record here.

A word on the EC50: it is the concentration that produces a half-maximal response.

For `Cc1nc(C)c([C@H](OC(C)(C)C)C(=O)O)c(N2CC3CCC2C3)c1-c1ccc(C(=O)NCc2ccccc2)cc1` (stereo partly drawn) [Example 1, (S)-2-(5-(4-(Benzylcarbamoyl)phenyl)-4-(2-azabicyclo[2.2.1]heptan-2-yl)-2,6-dimethylpyridin-3-yl)-2-(tert-butoxy)acetic acid], the pEC50 was 6.00 to 7.00 and the EC50 came out at 0.446 µM.

In the case of `Cc1nc(C)c([C@H](OC(C)(C)C)C(=O)O)c(N2CCc3ccccc3C2)c1-c1ccc(OCCc2ccc(F)cc2)cc1` [Example 2, (S)-2-(tert-Butoxy)-2-(4-(3,4-dihydroisoquinolin-2(1H)-yl)-5-(4-(4-fluorophenethoxy)phenyl)-2,6-dimethylpyridin-3-yl)acetic acid], the EC50 amounted to 0.036 µM.

Take `Cc1nc(C)c([C@H](OC(C)(C)C)C(=O)O)c(N2CC3CCCC3C2)c1-c1ccc(OCCc2ccc(F)cc2)cc1` (stereo partly drawn) [Example 3]: the pEC50 was over 7.00.

In the case of `Cc1nc(C)c([C@H](OC(C)(C)C)C(=O)O)c(N2CC3CCCC3C2)c1-c1ccc(C(=O)NCc2ccccc2)cc1` (stereo partly drawn) [Example 4, (2S)-2-(5-(4-(Benzylcarbamoyl)phenyl)-4-(hexahydrocyclopenta[c]pyrrol-2(1H)-yl)-2,6-dimethylpyridin-3-yl)-2-(tert-butoxy)acetic acid], the pEC50 is over 7.00.

Take `Cc1nc(C)c([C@H](OC(C)(C)C)C(=O)O)c(N2CC3CCC(C)(C2)C3(C)C)c1-c1ccc(C(=O)NCc2ccccc2)cc1` (stereo partly drawn) [Example 5, (S)-2-(5-(4-(Benzylcarbamoyl)phenyl)-2,6-dimethyl-4-(1,8,8-trimethyl-3-azabicyclo[3.2.1]octan-3-yl)pyridin-3-yl)-2-(tert-butoxy)acetic acid]: the pEC50 was over 7.00.

With `Cc1nc(C)c([C@H](OC(C)(C)C)C(=O)O)c(N2CC3CC3C2)c1-c1ccc(OCCc2ccc(F)cc2)cc1` (stereo partly drawn) [Example 6, (2S)-2-(4-(3-Azabicyclo[3.1.0]hexan-3-yl)-5-(4-(4-fluorophenethoxy)phenyl)-2,6-dimethylpyridin-3-yl)-2-(tert-butoxy)acetic acid], the pEC50 is 6.00 to 7.00.

As for `Cc1nc(C)c([C@H](OC(C)(C)C)C(=O)O)c(N2CC3CC3C2)c1-c1ccc(C(=O)NCc2ccccc2)cc1` (stereo partly drawn) [Example 7, (2S)-2-(5-(4-(Benzylcarbamoyl)phenyl)-4-(3-azabicyclo[3.1.0]hexan-3-yl)-2,6-dimethylpyridin-3-yl)-2-(tert-butoxy)acetic acid], the pEC50 is 6.00 to 7.00 and the EC50 stood at 0.651 µM.

In the case of `Cc1nc(C)c([C@H](OC(C)(C)C)C(=O)O)c(N2CC3C(C2)C3(C)C)c1-c1ccc(OCCc2ccc(F)cc2)cc1` (stereo partly drawn) [Example 8, (2S)-2-(tert-Butoxy)-2-(4-(6,6-dimethyl-3-azabicyclo[3.1.0]hexan-3-yl)-5-(4-(4-fluorophenethoxy)phenyl)-2,6-dimethyl-pyridin-3-yl)acetic acid], the pEC50 was over 7.00.

Regarding `Cc1nc(C)c([C@H](OC(C)(C)C)C(=O)O)c(N2CC3C(C2)C3(C)C)c1-c1ccc(C(=O)NCc2ccccc2)cc1` (stereo partly drawn) [Example 9, (2S)-2-(5-(4-(Benzylcarbamoyl)phenyl)-4-(6,6-dimethyl-3-azabicyclo[3.1.0]hexan-3-yl)-2,6-dimethylpyridin-3-yl)-2-(tert-butoxy)acetic acid], the pEC50 was over 7.00 and the EC50 was 0.083 µM.

In the case of `Cc1nc(C)c([C@H](OC(C)(C)C)C(=O)O)c(N2CCc3ccccc3C2)c1-c1ccc(OCCc2ccc(F)cc2)cc1` [Example 10, (S)-2-(tert-Butoxy)-2-(4-(3,4-dihydroisoquinolin-2(1H)-yl)-5-(4-(4-fluorophenethoxy)phenyl)-2,6-dimethylpyridin-3-yl)acetic acid], the pEC50 is over 7.00.

For the compound `Cc1nc(C)c([C@H](OC(C)(C)C)C(=O)O)c(N2CC[C@H]3CCCC[C@H]3C2)c1-c1ccc(C(=O)NCc2ccccc2)cc1` [Example 11, (S)-2-(5-(4-(Benzylcarbamoyl)phenyl)-2,6-dimethyl-4-((4aR,8aR)-octahydroisoquinolin-2(1H)-yl)pyridin-3-yl)-2-(tert-butoxy)acetic acid], the pEC50 is over 7.00.

Regarding `Cc1nc(C)c([C@H](OC(C)(C)C)C(=O)O)c(N2CC[C@H]3CCCC[C@@H]3C2)c1-c1ccc(OCCc2ccc(F)cc2)cc1` [Example 12, (S)-2-(tert-Butoxy)-2-(5-(4-(4-fluorophenethoxy)phenyl)-2,6-dimethyl-4-((4aR,8aS)-octahydroisoquinolin-2(H)-yl)pyridin-3-yl)acetic acid], the pEC50 is over 7.00.

As for `Cc1nc(C)c([C@H](OC(C)(C)C)C(=O)O)c(N2CC[C@H]3CCCC[C@@H]3C2)c1-c1ccc(C(=O)NCc2ccccc2)cc1` [Example 13, (S)-2-(5-(4-(Benzylcarbamoyl)phenyl)-2,6-dimethyl-4-((4aR,8aS)-octahydroisoquinolin-2(1H)-yl)pyridin-3-yl)-2-(tert-butoxy)acetic acid], the pEC50 was over 7.00.

As for `Cc1nc(C)c([C@H](OC(C)(C)C)C(=O)O)c(N2CCC3(CCCC3)C2)c1-c1ccc(OCCc2ccc(F)cc2)cc1` [Example 14, (S)-2-(tert-Butoxy)-2-(5-(4-(4-fluorophenethoxy)phenyl)-2,6-dimethyl-4-(2-azaspiro[4.4]nonan-2-yl)pyridin-3-yl)acetic acid], the pEC50 was over 7.00.

With `Cc1nc(C)c([C@H](OC(C)(C)C)C(=O)O)c(N2CCC3(CCCC3)C2)c1-c1ccc(C(=O)NCc2ccccc2)cc1` [Example 15, (S)-2-(5-(4-(Benzylcarbamoyl)phenyl)-2,6-dimethyl-4-(2-azaspiro[4.4]nonan-2-yl)pyridin-3-yl)-2-(tert-butoxy)acetic acid], the pEC50 was over 7.00.

Regarding `Cc1nc(C)c([C@H](OC(C)(C)C)C(=O)O)c(N2CCC3(CC2)CC3)c1-c1ccc(OCCc2ccc(F)cc2)cc1` [Example 16, (S)-2-(tert-Butoxy)-2-(5-(4-(4-fluorophenethoxy)phenyl)-2,6-dimethyl-4-(6-azaspiro[2.5]octan-6-yl)pyridin-3-yl)acetic acid], the pEC50 is over 7.00 and the EC50 was found to be 0.003 µM.

Take `Cc1nc(C)c([C@H](OC(C)(C)C)C(=O)O)c(N2CCC3(CC2)CC3)c1-c1ccc(C(=O)NCc2ccccc2)cc1` [Example 17, (S)-2-(5-(4-(Benzylcarbamoyl)-phenyl)-2,6-dimethyl-4-(6-azaspiro[2.5]octan-6-yl)pyridin-3-yl)-2-(tert-butoxy)acetic acid]: the pEC50 is over 7.00.

For the compound `Cc1nc(C)c([C@H](OC(C)(C)C)C(=O)O)c(N2CCCC3(CCCC3)C2)c1-c1ccc(OCCc2ccc(F)cc2)cc1` [Example 18, (S)-2-(tert-Butoxy)-2-(5-(4-(4-fluorophenethoxy)phenyl)-2,6-dimethyl-4-(7-azaspiro[4.5]decan-7-yl)pyridin-3-yl)acetic acid], the pEC50 was 6.00 to 7.00 and the half-maximal effective concentration (EC50) worked out at 0.475 µM.

Take `Cc1nc(C)c([C@H](OC(C)(C)C)C(=O)O)c(N2CCCC3(CCCC3)C2)c1-c1ccc(C(=O)NCc2ccccc2)cc1` [Example 19, (S)-2-(5-(4-(Benzylcarbamoyl)phenyl)-2,6-dimethyl-4-(7-azaspiro[4.5]decan-7-yl)pyridin-3-yl)-2-(tert-butoxy)acetic acid]: the pEC50 is 6.00 to 7.00.
